Measurements from US12318365B2, “Inhibition of dipeptide repeat proteins” (ALS Therapy Development Institute, priority 2019, dated 2025).
“Also recorded” adds a separate entry of the source.

How the values were obtained:
[1] = test system: NSC-34 cells; experiment: LDH assay (cytotoxicity) in NSC-34 cells; format: cell-based; details: for toxicity independently of GR and PR treatment: no DRP
Excerpt: LDH Assay: The LDH assay is a colorimetric assay that measures cell toxicity and death. […] When cells lose membrane integrity, an enzyme found in living cells called lactate dehydrogenase (LDH) is released into the solution surrounding the dying cell. A form of programmed cell death, apoptosis, as well as other forms of cell death also ultimately lead to a cell's membrane being destroyed, resulting in a large release of LDH into the extracellular space. Thus, LDH is an excellent marker not only for necrosis, but for all instances of cell death. In an LDH assay, a sample of the solution surrounding the cell is isolated, and transferred to a plate containing an LDH reaction mixture. This reaction mixture contains a tetrazolium salt intermediate and other reaction constituents that, when exposed to LDH, convert the tetrazolium salt into a colored Formazan product. This Formazan product can be quantified spectrophotometrically. Greater absorbance readings correspond to more cell death.
One row on the top and bottom of the plate, and two columns on either side of the plate, were left without cells and contained culture medium only to minimize experimental well volume evaporation. After plating, cells were incubated for 24 h at 37° C., 5% CO2 prior to DRP and/or PRMT inhibitor addition. At time of DRP/PRMT inhibitor addition, desired doses of DRP for challenge and inhibitor for treatment were achieved by diluting aliquots of each stock in warm culture medium. During experiments where both PRMT inhibitors and DRPs were used, PRMT inhibitors were always applied to wells first, and followed by DRP application. […] Inhibitor toxicity controls were included as wells treated with the desired doses of drug for the experiment, but no DRP. DRP toxicity controls were included as wells only treated with the doses of DRP used for challenge. Once dosed, plates were incubated for 24 h at 37° C., 5% CO2 prior to running the WST-1 or LDH assay endpoints. Additional controls needed for each endpoint are specified in the “WST-1 Assay” and “LDH Assay” sections of these methods.
LDH Assay: Cells were plated and prepared using the steps described in the “Plating NSC-34 and Dosing with DRPs and PRMT Inhibitors” section of these methods. Other controls for this experiment included several sets of wells with only cells in culture medium (one triplicate designated for “untreated,” one triplicate designated for “lysed” positive control), and wells with culture medium only. An additional control added only to the transfer plate at time of testing was 5 μL LDH only. Testing was performed using colorimetric LDH-Cytotoxicity Assay Kit II (Abcam, Cambridge, MA, USA) per manufacturer's instructions. Final read at 450 nm was performed on a SpectraMax M3 Microplate Reader (Molecular Devices, San Jose, CA, USA). Data analysis included calculation of % LDH release using the following equation: […]
Experiments included three replicates per condition. Each experiment was repeated twice (executed three times total).
(§1) The following conditions were plated in triplicate.
Plates were incubated for 24 h at 37° C., 5% CO2. Cells were tested and data were analyzed by LDH assay.
Cells were plated in culture medium in 2 96-well plates at a density of 3.7×10^4 cells per well, and incubated overnight at 37° C., 5% CO2.
as §1
Cells were plated in culture medium in 2 96-well plates at a density of 3.7×10^4 cells per well, and incubated overnight at 37° C., 5% CO2. […]
The following conditions were plated in triplicate. […]

[2] = test system: asymmetrical arginine methylation of NSC-34 cells; experiment: Cellular asymmetric arginine methylation (800/700 fluorescence readout) in NSC-34 cells; format: cell-based, Mouse; details: 24 hour treatment
Experimental: On Day 0, NSC-34 Cells were plated in 48 wells of a 96 well plate, and CHO cells were plated in the other 48 wells of the same 96-well plate. NSC-34 cells were plated in DMEM/High glucose media. CHO cells were plated in Ham's F-12K (Kaighn's) Medium. Both cell lines were incubated overnight to reach approximately 50% confluency.
On Day 1, 24 wells of the NSC-34 cells and 24 wells of the CHO cells were treated with the following concentrations of MS023: 1 μM, 3 μM, 6 μM, 10 μM, 30 μM, and 60 μM. The cells were then incubated overnight.
On Day 2, 18 wells of the untreated NSC-34 cells and 18 wells of the untreated CHO cells were treated with the same concentrations of MS023 as those on Day 1. This left 6 wells of each cell line that never received MS023. Once MS023 was added, the cells were incubated overnight.
On Day 3, all media in the 96-well plate was removed and the cells were fixed with 3.7% Paraformaldehyde (PFA). Cells were then washed and permeabilized with 1×PBS/0.1% Triton X-100.
After removing the PBS/Triton wash, Odyssey Blocking Buffer (LI-COR, 927-40100) was applied to all wells and the plate sat at room temperature with moderate shaking for 90 minutes. After 90 minutes, the blocking buffer was removed and the cells were treated with a 1:500 dilution of the Anti-Asymmetric Di-Methyl Arginine Motif primary antibody (Cell Signaling Technology, #13522). Incubation with the primary antibody continued overnight at 4 degrees Celsius with no shaking.
On Day 4, the primary antibody solution was removed from the plate, and the cells were washed with 1×PBS/0.1% Tween 20. After washing, cells were given a secondary antibody mixture containing a 1:1000 dilution of IRDye 800 CW Anti-Rabbit antibody (LI-COR, 926-32211) and a 1:500 dilution of Cell Tag 700 Stain (LI-COR, 926-41090). The secondary antibody mixture remained on cells for 60 minutes with gentle shaking and protected from light.
(§2) After 60 minutes, the secondary antibody mixture was removed and the cells were again washed with 1×PBS/0.1% Tween 20. All wash buffer was then removed, and the plate was gently patted dry to remove excess solution. The plate was then read on the LI-COR Odyssey Classic Imaging System which provides results based on fluorescence. In this experiment, fluorescence occurred as a result of cellular, asymmetric arginine methylation. MS023 was given to cells for either 24 or 48 hours, with expectation for it to reduce cellular, asymmetric arginine methylation. Cell number per well was accounted for using the Cell Tag 700 Stain, which fluorescently labels total protein levels in a cell. To this effect, fluorescence from asymmetrical arginine methylation per well (800) was divided by fluorescence from the total protein level per well (700) to produce an outcome of 800/700.
On Day 1, 24 wells of the NSC-34 cells and 24 wells of the CHO cells were treated with the following concentrations of MS049: 0.2 μM, 1 μM, 2 μM, 10 μM, 20 μM, and 100 μM. The cells were then incubated overnight.
On Day 2, 18 wells of the untreated NSC-34 cells and 18 wells of the untreated CHO cells were treated with the same concentrations of MS049 as those on Day 1. This left 6 wells of each cell line that never received MS049. Once MS049 was added, the cells were incubated overnight.
as §2, with “MS049” for “MS023”, “To this effect, fluorescence from asymmetrical arginine methylation per well (800) was divided by fluorescence from the total protein level per well (700) to produce an outcome of 800/700.” left out

CNCCN1CCC(OCc2ccccc2)CC1 [MS049]
dose dependence of abrogation of GR15-induced cytotoxicity ([1]; 3 μM GR15, 24 h, dose range of the example): dose-dependently abrogated | abrogation of GR-induced toxicity ([1]; 3 μM GR15, 24 h, doses 0.2, 1, 2, 20 and 100 μM): partially abrogated | abrogation of GR-induced toxicity ([1]; 3 μM GR15, 24 h, doses 2 and 10 μM): completely abrogated | abrogation of GR15-induced cytotoxicity ([1]; 3 μM GR15, doses 1 and 20 μM): partially abrogated | dose dependence of abrogation of PR15-induced cytotoxicity ([1]; 3 μM PR15, 24 h, dose range of the example): dose-dependently abrogated | abrogation of PR-induced toxicity ([1]; 3 μM PR15, 24 h, doses 0.2, 1, 2, 20 and 100 μM): partially abrogated | abrogation of PR-induced toxicity ([1]; 3 μM PR15, 24 h, doses 2 and 10 μM): completely abrogated | abrogation of PR15-induced cytotoxicity ([1]; 3 μM PR15, doses 1 and 20 μM): partially abrogated | toxicity independently of GR and PR treatment ([1]; doses 100 and 20 μM): did cause significant toxicity; also recorded: did cause significant cytotoxicity | toxicity independently of GR and PR treatment ([1]; other doses tested (0.2, 1, 2, 10 μM)): not at other doses tested | decrease of asymmetrical arginine methylation ([2]; 1 μM, vs untreated cells): approximately 17% | decrease of asymmetrical arginine methylation ([2]; 100 μM): ~39%
